Laboratory results reported in BindingDB's records for patent US12180207 (Array Biopharma, 2024).

Tests used:
[1] = target: T1, Fibroblast growth factor receptor 3 (Homo sapiens, UniProt P22607); assay: FGFR3 Enzyme Activity Assay
Experimental: (§1) FGFR3 kinase activity was measured by the Invitrogen LanthaScreen™ Assay technology which directly measures the amount of substrate phosphorylation by TR-FRET using a fluorescently-labeled peptide and Europium-labeled antibody. […] After a 10 minute incubation at 22° C., an equal volume of 2 nM LanthaScreen Eu-PY20 Antibody (Life Technologies Cat. No. PV5691) and 10 mM EDTA were added to quench the kinase reaction and start the detection reaction. After an additional 60 minute incubation at 22° C., the reaction was measured using a PerkinElmer EnVision multimode plate reader via TR-FRET dual wavelength detection, and the percent of control (POC) calculated using a ratiometric emission factor. 100 POC was determined using no test compounds and 0 POC was determined using no enzyme. The POC values were fit to a 4-parameter logistic curve as a function of the concentration of the compound, and the IC50 value is the point where the curve crosses 50 POC.

[2] = target: T2, Fibroblast growth factor receptor 1 (Homo sapiens, UniProt P11362); assay: FGFR1 Enzyme Activity Assay
T2 sequence (P11362 whole entry): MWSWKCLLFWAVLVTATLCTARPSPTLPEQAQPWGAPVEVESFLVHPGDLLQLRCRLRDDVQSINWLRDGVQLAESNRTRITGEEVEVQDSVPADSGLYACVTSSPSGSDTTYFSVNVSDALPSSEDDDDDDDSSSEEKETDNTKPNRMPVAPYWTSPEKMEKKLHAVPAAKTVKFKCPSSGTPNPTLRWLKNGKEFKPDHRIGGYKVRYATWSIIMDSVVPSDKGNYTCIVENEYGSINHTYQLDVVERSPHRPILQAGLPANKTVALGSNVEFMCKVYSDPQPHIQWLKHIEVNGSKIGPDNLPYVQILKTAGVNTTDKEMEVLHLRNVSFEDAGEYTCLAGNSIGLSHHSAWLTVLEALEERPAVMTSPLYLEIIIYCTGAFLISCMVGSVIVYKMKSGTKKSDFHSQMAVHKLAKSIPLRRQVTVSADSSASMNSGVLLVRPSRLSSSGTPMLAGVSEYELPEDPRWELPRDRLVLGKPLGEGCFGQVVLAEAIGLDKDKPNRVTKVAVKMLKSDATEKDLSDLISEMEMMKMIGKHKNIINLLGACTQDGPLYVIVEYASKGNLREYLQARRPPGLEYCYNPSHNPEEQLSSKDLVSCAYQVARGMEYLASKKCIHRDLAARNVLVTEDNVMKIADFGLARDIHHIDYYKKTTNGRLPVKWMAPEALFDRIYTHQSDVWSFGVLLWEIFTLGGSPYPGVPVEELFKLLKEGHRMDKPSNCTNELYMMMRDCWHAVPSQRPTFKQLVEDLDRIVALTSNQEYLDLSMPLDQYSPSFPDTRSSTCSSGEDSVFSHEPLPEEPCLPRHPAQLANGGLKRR
Experimental: as §1, with “FGFR1 kinase” for “FGFR3 kinase”, “by Time-resolved fluorescence energy transfer (TR-FRET)” for “by TR-FRET”, “a 20 minutes” for “a 10 minute”, “EDTA was” for “EDTA were”

[3] = target: T2, Fibroblast growth factor receptor 1; assay: Enzyme Assay
Experimental: (§2) he potency of compounds inhibiting human isoforms of FGFR kinase was determined using Life Technologies' Homogeneous Time Resolved Fluorescence (HTRF)-based binding assay technology. […] After a 60 minute incubation at 22° C., the extent of tracer displacement was determined using a PerkinElmer EnVision multimode plate reader via HTRF dual wavelength detection, and the percent of control (POC) was calculated using a ratiometric emission factor. One hundred POC was determined using no test compound, and 0 POC was determined in the presence of 1 μM of an appropriate control inhibitor.

[4] = target: T1, Fibroblast growth factor receptor 3; assay: Enzyme Assay
Experimental: as §2

[5] = target: T3, Fibroblast growth factor receptor 2 (Homo sapiens, UniProt P21802); assay: FGFR2 Enzyme Activity Assay
T3 sequence (P21802 whole entry): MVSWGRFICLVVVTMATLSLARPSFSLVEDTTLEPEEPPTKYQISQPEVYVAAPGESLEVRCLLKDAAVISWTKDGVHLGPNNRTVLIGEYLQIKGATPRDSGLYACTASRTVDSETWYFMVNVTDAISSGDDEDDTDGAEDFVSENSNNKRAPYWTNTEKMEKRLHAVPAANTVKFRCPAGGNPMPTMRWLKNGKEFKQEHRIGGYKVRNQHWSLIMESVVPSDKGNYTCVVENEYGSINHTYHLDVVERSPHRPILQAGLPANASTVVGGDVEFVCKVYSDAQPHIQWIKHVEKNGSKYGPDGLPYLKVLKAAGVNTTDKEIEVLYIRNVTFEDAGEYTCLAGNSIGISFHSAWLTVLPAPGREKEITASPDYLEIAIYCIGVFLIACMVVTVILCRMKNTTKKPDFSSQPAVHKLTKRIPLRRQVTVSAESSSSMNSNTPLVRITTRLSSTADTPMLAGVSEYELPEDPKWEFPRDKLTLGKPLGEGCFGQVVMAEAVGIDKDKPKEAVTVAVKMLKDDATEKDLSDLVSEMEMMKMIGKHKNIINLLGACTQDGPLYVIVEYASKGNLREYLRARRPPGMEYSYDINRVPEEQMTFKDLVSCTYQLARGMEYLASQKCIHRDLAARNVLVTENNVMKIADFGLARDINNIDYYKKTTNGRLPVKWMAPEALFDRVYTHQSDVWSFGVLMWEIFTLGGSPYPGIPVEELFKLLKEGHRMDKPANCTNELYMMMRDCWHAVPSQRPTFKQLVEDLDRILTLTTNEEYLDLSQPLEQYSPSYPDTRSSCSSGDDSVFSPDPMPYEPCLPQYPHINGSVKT
Experimental: as §1, with “FGFR2 kinase” for “FGFR3 kinase”, “a 20” for “a 10”

[6] = target: T3, Fibroblast growth factor receptor 2; assay: Enzyme Assay
Experimental: as §2

T1 sequence (P22607 whole entry): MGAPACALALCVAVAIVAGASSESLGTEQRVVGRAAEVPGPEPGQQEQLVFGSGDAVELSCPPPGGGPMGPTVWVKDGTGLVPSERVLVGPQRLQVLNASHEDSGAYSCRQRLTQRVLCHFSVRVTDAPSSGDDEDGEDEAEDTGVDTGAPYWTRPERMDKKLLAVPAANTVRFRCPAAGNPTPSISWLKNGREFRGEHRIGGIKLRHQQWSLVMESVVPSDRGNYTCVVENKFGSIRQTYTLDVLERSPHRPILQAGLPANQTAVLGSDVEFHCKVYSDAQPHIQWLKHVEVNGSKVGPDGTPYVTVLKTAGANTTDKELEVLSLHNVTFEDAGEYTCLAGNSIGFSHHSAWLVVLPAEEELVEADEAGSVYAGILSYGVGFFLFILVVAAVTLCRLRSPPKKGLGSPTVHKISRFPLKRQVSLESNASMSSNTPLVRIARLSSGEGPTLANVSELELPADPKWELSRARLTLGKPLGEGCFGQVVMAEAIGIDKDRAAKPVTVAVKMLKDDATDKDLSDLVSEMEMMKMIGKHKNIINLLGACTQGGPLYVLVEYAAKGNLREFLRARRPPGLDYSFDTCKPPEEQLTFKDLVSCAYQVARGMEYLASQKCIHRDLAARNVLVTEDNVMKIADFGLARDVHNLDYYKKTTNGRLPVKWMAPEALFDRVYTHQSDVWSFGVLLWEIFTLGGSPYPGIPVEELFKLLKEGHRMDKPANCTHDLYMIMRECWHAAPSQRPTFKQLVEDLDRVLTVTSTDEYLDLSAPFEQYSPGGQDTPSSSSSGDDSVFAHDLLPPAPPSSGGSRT

SMILES | IC50 [1] [nM] | IC50 [2] [nM] | IC50 [3] [nM] | IC50 [4] [nM] | IC50 [5] [nM] | IC50 [6] [nM]
C=CC(=O)Nc1ccc(S(=O)(=O)N2CCC(n3cc(-c4cc(OC)c5c(C#N)cnn5c4)cn3)CC2)cc1 [US12180207, Example 49] | 5 | 43 | 113 | 13 | – | –
C=CC(=O)N[C@H]1CC[C@H](C(=O)N2CCC(n3cc(-c4cc(OC)c5c(C#N)cnn5c4)cn3)CC2)C1 [US12180207, Example 35] | 3 | 19 | 119 | 23 | 5 | –
C=CC(=O)N[C@@H]1CC[C@H](C(=O)N2CCC(n3cc(-c4cc(OC)c5c(C#N)cnn5c4)cn3)CC2)C1 [US12180207, Example 32] | 3 | 13 | 113 | 31 | 4 | –
C=CS(=O)(=O)N[C@H]1C[C@@H](C(=O)N2CCC(n3cc(-c4cc(OC)c5c(C#N)cnn5c4)cn3)CC2)C1 [US12180207, Example 193] | – | 7 | 36 | – | – | –
C=CC(=O)N[C@H]1CCC[C@@H](C(=O)N2CCC(n3cc(-c4cc(OC)c5c(C#N)cnn5c4)cn3)CC2)C1 [US12180207, Example 19] | 7 | 20 | 56 | 11 | 8 | –
C=CC(=O)N[C@H]1CC[C@H](C(=O)N2CC(n3cc(-c4cc(OC)c5c(C#N)cnn5c4)cn3)C2)C1 [US12180207, Example 77] | 11 | 35 | 393 | 118 | 12 | –
COc1cc(-c2cnn(C3CCN(C(=O)/C=C/CN(C)C)CC3)c2)cn2ncc(C#N)c12 [US12180207, Example 144] | 4 | 11 | 276 | 24 | 5 | –
C=CS(=O)(=O)N[C@H]1C[C@H](C(=O)N2CCC(n3cc(-c4cc(OC)c5c(C#N)cnn5c4)cn3)CC2)C1 [US12180207, Example 194] | – | 13 | 93 | – | – | –
COc1cc(-c2cnn(C3CCN(C(=O)C4CN(C(=O)/C=C/CF)C4)CC3)c2)cn2ncc(C#N)c12 [US12180207, Example 142] | – | 20 | 36 | 5 | 3 | 16
C=CS(=O)(=O)Nc1ccc(C(=O)N2CCC(n3cc(-c4cc(OC)c5c(C#N)cnn5c4)cn3)CC2)cc1 [US12180207, Example 196] | 2 | 10 | 31 | 3 | 8 | –
COc1cc(-c2cnn(C3CN(CC4CN(C(=O)/C=C/CN(C)C)C4)C3)c2)cn2ncc(C#N)c12 [US12180207, Example 148] | 4 | 47 | 217 | 14 | 6 | –
C=C(F)C(=O)N1CC(C(=O)N2CCC(n3cc(-c4cc(OC)c5c(C#N)cnn5c4)cn3)CC2)C1 [US12180207, Example 140] | 4 | 21 | 37 | 7 | 2 | 19
COc1cc(-c2cnn(C3CN(C(=O)C4CN(C(=O)/C=C/CN(C)C)C4)C3)c2)cn2ncc(C#N)c12 [US12180207, Example 150] | 7 | 8 | 229 | 22 | 6 | –
C=CC(=O)N[C@H]1CC[C@@H](C(=O)N2CCC(n3cc(-c4cc(OC)c5c(C#N)cnn5c4)cn3)CC2)C1 [US12180207, Example 33] | 1 | – | 20 | 3 | 4 | –
C=CS(=O)(=O)N[C@H]1CC[C@H](C(=O)N2CCC(n3cc(-c4cc(OC)c5c(C#N)cnn5c4)cn3)CC2)CC1 [US12180207, Example 187] | – | 17 | 31 | 4 | 5 | –
C=CC(=O)N[C@@H]1CC[C@@H](C(=O)N2CCC(n3cc(-c4cc(OC)c5c(C#N)cnn5c4)cn3)CC2)C1 [US12180207, Example 34] | 2 | 19 | 231 | 36 | 5 | –
